Reference: ChEMBL document CHEMBL4251557 (Eur J Med Chem, 2017)

Key:
[1] = target: Neuraminidase (Influenza A virus) (UniProt A5Z252); details: Influenza A virus (A/Anhui/1/2005(H5N1)); at 100 µM
[2] = target: Neuraminidase (Influenza A virus) (UniProt A5Z252); details: Influenza A virus (A/Anhui/1/2005(H5N1)); at 10 µM
Neuraminidase [3] = target: Neuraminidase (Influenza A virus, UniProt A5Z252); experiment: Inhibition of Influenza A virus A/Anhui/1/2005(H5N1) neuraminidase using MUNANA as substrate preincubated for 5 to 15 mins followed by substrate addition measured after 30 mins by fluorescence assay
Neuraminidase [4] = target: T1, Neuraminidase (Influenza A virus, UniProt B4URF0); experiment: Inhibition of Influenza A virus A/California/04/2009(H1N1) neuraminidase using MUNANA as substrate preincubated for 5 to 15 mins followed by substrate addition measured after 30 mins by fluorescence assay
T1 sequence (B4URF0 whole entry): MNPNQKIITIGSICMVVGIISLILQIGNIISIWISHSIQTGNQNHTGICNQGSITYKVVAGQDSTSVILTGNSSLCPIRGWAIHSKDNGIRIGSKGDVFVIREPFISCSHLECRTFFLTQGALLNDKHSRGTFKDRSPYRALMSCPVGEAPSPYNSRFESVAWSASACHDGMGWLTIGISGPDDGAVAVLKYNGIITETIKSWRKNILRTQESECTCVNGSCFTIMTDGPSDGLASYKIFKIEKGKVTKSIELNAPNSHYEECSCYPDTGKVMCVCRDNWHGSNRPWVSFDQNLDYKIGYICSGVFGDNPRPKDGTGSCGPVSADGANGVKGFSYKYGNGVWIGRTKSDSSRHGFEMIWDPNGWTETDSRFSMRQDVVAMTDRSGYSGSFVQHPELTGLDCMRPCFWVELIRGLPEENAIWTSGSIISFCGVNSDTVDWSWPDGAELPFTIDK

Neuraminidase [5] = target: T1, Neuraminidase; experiment: Inhibition of Influenza A virus A/Anhui/1/2013(H7N9) neuraminidase 150 cavity at 10 uM using MUNANA as substrate preincubated for 5 to 15 mins followed by substrate addition measured after 30 mins by fluorescence assay relative to control

SMILES	inhibition [1] [%]	inhibition [2] [%]	IC50 (Neuraminidase [3]) [nM]	further results
CCC(=O)N[C@H]1CC(C(=O)O)=C[C@@H](OC(CC)CC)[C@@H]1NC(C)=O	84.5	47.9		
CCC(CC)O[C@@H]1C=C(C(=O)O)C[C@H](NC(=O)[C@H](O)CCc2ccccc2)[C@H]1NC(C)=O	60.4	49.2		
C=CC(=O)N[C@H]1CC(C(=O)O)=C[C@@H](OC(CC)CC)[C@@H]1NC(C)=O			2980	
CCC(CC)O[C@@H]1C=C(C(=O)O)C[C@H](NC(=O)C(F)F)[C@H]1NC(C)=O			190	
CCC(CC)O[C@@H]1C=C(C(=O)O)C[C@H](NC(=O)CN)[C@H]1NC(C)=O			2670	
CCC(CC)O[C@@H]1C=C(C(=O)O)C[C@H](NC=O)[C@H]1NC(C)=O			1290	
CCC(CC)O[C@@H]1C=C(C(=O)O)C[C@H](NC(=O)[C@@H](C)N)[C@H]1NC(C)=O	49.3	18.8		
CCC(CC)O[C@@H]1C=C(C(=O)O)C[C@H](NC(=O)CCCc2ccccc2)[C@H]1NC(C)=O	36			
CCC(CC)O[C@@H]1C=C(C(=O)O)C[C@H](NC(=O)CCc2ccccc2)[C@H]1NC(C)=O	19.1			
CCCC(=O)N[C@H]1CC(C(=O)O)=C[C@@H](OC(CC)CC)[C@@H]1NC(C)=O	66.8	14.7		
CCC(CC)O[C@@H]1C=C(C(=O)O)C[C@H](NC(=O)Cc2c[nH]c3ccccc23)[C@H]1NC(C)=O	47.3	12.8		
CCCCC(=O)N[C@H]1CC(C(=O)O)=C[C@@H](OC(CC)CC)[C@@H]1NC(C)=O	11.3			
CCC(CC)O[C@@H]1C=C(C(=O)O)C[C@H](NC(=O)CF)[C@H]1NC(C)=O			228	
CCC(CC)O[C@@H]1C=C(C(=O)O)C[C@H](NC(C)=O)[C@H]1NC(C)=O			238	IC50 (Neuraminidase [4]): 16.5 nM; IC50 (Neuraminidase [5]): 59.5 nM
CCC(CC)O[C@@H]1C=C(C(=O)O)C[C@H](NC(=O)Cc2ccc(C)cc2)[C@H]1NC(C)=O	57.2	10		
CCC(CC)O[C@@H]1C=C(C(=O)O)C[C@H](NC(=O)CN(C)C)[C@H]1NC(C)=O	58.2	30		
CCOC(=O)C1=C[C@@H](OC(CC)CC)[C@H](NC(C)=O)[C@@H](N)C1	95.5	91		
CCC(CC)O[C@@H]1C=C(C(=O)O)C[C@H](NC(=O)C(C)C)[C@H]1NC(C)=O	47.6	14.2		
CCCCCC(=O)N[C@H]1CC(C(=O)O)=C[C@@H](OC(CC)CC)[C@@H]1NC(C)=O	33.2			
CCC(CC)O[C@@H]1C=C(C(=O)O)C[C@H](NC(=O)/C=C/c2ccccc2)[C@H]1NC(C)=O	50.2	14.5		
CCC(CC)O[C@@H]1C=C(C(=O)O)C[C@H](NC(=O)C(F)(F)F)[C@H]1NC(C)=O			266	
